# Source: article PMC7915902, “Preclinical Evaluation of [^18F]FACH in Healthy Mice and Piglets: An ^18F-Labeled Ligand for Imaging of Monocarboxylate Transporters with PET” (International Journal of Molecular Sciences, 2021)
# Where two headings read alike, the source gives them in different places.
# Columns and labels:
# MCTs [1] = test: Dynamic PET/MRI in mice with pre-treatment; format: in vivo, mouse; details: for AUC0–60 min gall bladder / AUC0–60 min kidney cortex / AUC0–60 min liver / AUC0–60 min small intestine / AUC0–60 min whole blood: mouse, in vivo
# Method: (§1) The biodistribution of [^18F]FACH in mice was assessed by small animal PET (Nanoscan, Mediso, Budapest, Hungary) with dynamic 60 min emission recordings, followed by T1 weighted GRE MR (TR = 15.0 ms, TE = 2.4 ms, FA = 25°) imaging for anatomical correlations and attenuation correction. The mice (n = 20) weighing 32.2 ± 2.9 g were anaesthetised with 2% isoflurane in 60% oxygen, and placed on a thermostatically heated animal bed. The animals then received i.v. injections of 0.9% saline (control), reference compound (10 mg/kg), or α-CCA-Na (25 mg/kg) ten min prior or 20 min after (displacement studies) [^18F]FACH administration (2.3–8.6 MBq, 0.5–11.2 nmol/kg). List mode PET data were binned as a series of attenuation-corrected sinogram frames (12 × 10 s, 6 × 30 s, 5 × 60 s and 10 × 300 s) and were reconstructed by Ordered Subset Expectation Maximization (OSEM3D) with four iterations, six subsets and a voxel size of 0.4 mm³ (Nucline v2.01, Mediso).
# (§2) The analysis of reconstructed datasets was performed with PMOD software (v4.103, PMOD Technologies LLC, Zurich, Switzerland).
# (§3) Data are shown in mean ± standard deviation (SD). Group differences were tested by Student’s t-test, with p < 0.05 designated as significant. Area Under the Curves (AUCs) and corresponding 95% confidence intervals (CI95%s) were calculated with GraphPad Prism (v.8.2) following the assumptions described by Gagnon et al..
# MCTs [2] = test: Autoradiographic competition study in mouse kidney cryosections; format: binding; details: 300 nM competitor, 1 nM [18F]FACH
# Method: Cryosections from the mouse kidney (10 µm) were cut on a microtome (Microm HM560, Thermo Scientific Microm, Fisher Scientific GmbH, Schwerte, Germany), mounted on glass slides (SuperFrost, Thermo Scientific Menzel, Fisher Scientific GmbH), dried for two hours at room temperature, and stored at −25 °C. Before the binding experiment, the tissue slices were dried under a stream of cold air, pre-incubated with PBS (pH 7.4) for 15 min at room temperature and dried again before incubation with PBS containing [^18F]FACH (1.2 nM) without (total binding) and with different concentrations of FACH-Na (10 µM–0.1 nM; homologous competition) for 60 min. Specific binding to MCTs of [^18F]FACH in cryosections of mouse kidney was determined after co-incubation of 1 nM [^18F]FACH with vehicle or 300 nM α-CCa-Na or 300 nM reference compound (homologous competition).
# The incubation was terminated by washing with ice-cold buffer (50 mM TRIS-HCl, pH 7.4) twice for two minutes followed by dipping in ice-cold demineralized water for 5 s and drying under a stream of cold air. […] KD and Bmax values were calculated by the simplified Cheng and Prusoff equation (http://www3.uah.es/farmamol/Public/GraphPad/radiolig.htm, accessed on 5 February 2021):(1) KD=Ki=IC50−Radioligand (M) (2) Bmax=Top−Bottom/Radioligand (M)/(KD+Radioligand (M))
# [3] = Extended single dose toxicity study in rats; format: in vivo, rat
# Method: The extended single dose toxicity studies of FACH in male (n = 15) and female (n = 15) outbred Wistar rats were performed in the Biological Testing Laboratory (BTL) in Russia (Study Number 680/19). The test item FACH-Na was administered by single bolus i.v. injection at doses of 6.2, 62 and 620 μg/kg body weight (bw). Mortality, clinical pathology parameters (hematology and serum chemistry), organ weights and microscopic tissue parameters were investigated 24 h and two weeks after treatment.
# MCT4 = tested on: MCT4; set-up: method as in PMID 31017677; details: L-[14C]lactate uptake, MDA-MB231 cells; read-out: IC50 towards MCT4; cited from earlier work
# MCT1 [4] = tested on: MCT1; set-up: method as in PMID 31017677; details: L-[14C]lactate uptake, rat brain endothelial cells; read-out: IC50 towards MCT1; cited from earlier work
# MCT1 [5] = tested on: MCT1; set-up: method as in PMID 8779821; details: cited from earlier work
# [6] = in vivo
# MCTs [7] = test: PET displacement study in mice; format: in vivo, mouse
# Method: as §1, §2
# [8] = Metabolism and renal excretion of [18F]FACH in piglets (radio-HPLC, graphical analysis); details: piglet pre-treated with α-CCA-Na, 60 min p.i.
# MCTs [9] = format: in vivo, piglet
# Method: The piglets (n = 6) were inititally anaesthetised with intramuscular injections of stresnil and ursotamin, and anaesthesia was maintained with intravenous ursotamin and midazolam, as required. The hematocrit was measured in an ear vein blood sample collected just prior to imaging. Either saline (n = 3) or 25 mg/kg α-CCA-Na (n = 3) in saline was administrated ten min before i.v. administration of [^18F]FACH (261–327 MBq, corresponding to 218–852 pmol/kg) via an ear vein. Imaging was performed with a simultaneous hybrid PET/MR system (mMR Biograph; Siemens, Erlangen, Germany) equipped with dedicated phased-array surface. PET data were reconstructed into a 128 × 128 matrix (voxel size: 1.40 × 1.40 × 2.03 mm^3) using the built-in OSEM3D algorithm with eight iterations, 21 subsets, and a 3-mm Gaussian filter. The attenuation and decay corrected dynamic sequence consisted of 32 frames as follows: 1 × 15, 11 × 30, 1 × 45, 5 × 60, 1 × 90, 5 × 120, 1 × 180, 4 × 240, 1 × 300, 2 × 360 s, whereas activity concentrations in VOIs are represented in units of SUV or percentage of injected dose (%/ID). After completing the dynamic PET recording, piglets were euthanized with an i.v. overdose of T61 (Intervet Deutschland GmbH, Unterschleißheim, Germany) and tissues were sampled for radio-metabolism studies in selected animals.
# as §2, §3
# MCTs [10] = test: Compartmental kinetic modelling of PET data in piglets; format: in vivo, piglet; details: living piglets, α-CCA-Na dose
# Method: (§4) Table 4 includes the results of 1-tissue-compartment kinetic modelling (1-TCM) of [^18F]FACH in the kidney cortex and the liver of the control and pre-treated mouse groups (α-CCA-Na and reference compound). […] The BPND was estimated as the ratio of [VT(control)/VT(pre-treatment)] − 1.
# (§5) Kinetic analysis of reconstructed datasets was performed with PMOD software. First, image derived arterial input functions (IDIFs) were obtained from the left ventricle in mice and from an artery close to the kidney in piglet studies. IDIFs were corrected for partial volume effects, plasma fraction from hematocrit values (individually determined for each piglet directly before PET imaging; for mice set to 0.51 according to CD-1 Mouse Hematology sheet from Charles River Laboratories, 2011) and radio-metabolites (measured for piglets, and set to zero for mice). Tri-exponential metabolite-corrected fitted input functions were used for one and two tissue compartment modelling (1-TCM/2-TCM) of time activity curves (TACs) in tissue volumes of interest (VOIs). For both species the specific blood volume was set to 0.15 mL g^−1 in the kidney cortex and 0.128 mL g^−1 in the liver, according to published values.
# MCTs [11] = test: Compartmental kinetic modelling of PET data in mice; format: in vivo, mouse; details: kidney cortex, 2-TCM, [18F]FACH after α-CCA-Na pre-treatment
# Method: as §4, §5
# [12] = mice, reference compound 10 mg/kg pre-treatment
smiles,measurement,setting,value
CCCN(CCCF)c1ccc(/C=C(\C#N)C(=O)[O-])c(OC)c1.[Na+] [FACH-Na],reduction of [18F]FACH AUC0–60min in kidney cortex vs control,MCTs [1]; [12],79%
same,reduction of [18F]FACH AUC0–60min in liver vs control,MCTs [1]; [12],44%
same,AUC0–60 min gall bladder,MCTs [1]; 10 mg/kg,1388 SUV min
same,AUC0–60 min kidney cortex,MCTs [1]; 10 mg/kg,62 SUV min
same,AUC0–60 min liver,MCTs [1]; 10 mg/kg,250 SUV min
same,AUC0–60 min small intestine,MCTs [1]; 10 mg/kg,405 SUV min
same,AUC0–60 min whole blood,MCTs [1]; 10 mg/kg,125 SUV min
same,displacement of [18F]FACH,MCTs [2],41%
same,no-observed-adverse-effect-level (NOAEL),"[3]; Wistar rats, single bolus i.v.",620 µg FACH-Na/kg bodyweight
same,NOAEL relative to the equivalent to the human dose (0.1 µg/kg),[3]; rats,approximately 1000 fold
CCCN(CCCF)c1ccc(/C=C(\C#N)C(=O)O)c(OC)c1 [FACH],IC50,MCT4,6.5 nM
same,IC50,MCT1 [4],11 nM
"N#CC(=Cc1ccc(O)cc1)C(=O)O [α-CCA, α-cyano-4-hydroxycinnamic acid]",selectivity for MCT1 (MCT1/4) compared to the other subtypes,MCT1 [5],ten-fold higher selectivity
"N#CC(=Cc1ccc(O)cc1)C(=O)[O-].[Na+] [α-CCA-Na, reference compound]",AUC0–60 min gall bladder,MCTs [1]; 25 mg/kg,486 SUV min
same,AUC0–60 min kidney cortex,MCTs [1]; 25 mg/kg,153 SUV min
same,AUC0–60 min liver,MCTs [1]; 25 mg/kg,417 SUV min
same,AUC0–60 min small intestine,MCTs [1]; 25 mg/kg,180 SUV min
same,AUC0–60 min whole blood,MCTs [1]; 25 mg/kg,63 SUV min
same,selectivity for MCT1 (MCT1/4) compared to the other subtypes,MCT1 [5],10 fold
same,rate constant for elimination of radio-metabolites from plasma (k−1),[6],0.020 ± 0.003 min⁻¹
same,decrease of kidney cortex SUV,"MCTs [7]; mice, 5 min after i.v. α-CCA-Na 25 mg/kg given 20 min after tracer",66%
same,kidney cortex SUV,"MCTs [7]; mouse, in vivo",1.41 ± 0.36
same,parent fraction of [18F]FACH in kidney cortex,[8],17.0%
same,AUC0–60 min gall bladder,"MCTs [9]; in vivo, 25 mg/kg",4453 SUV min
same,AUC0–60 min kidney cortex,"MCTs [9]; in vivo, 25 mg/kg",178 SUV min
same,AUC0–60 min kidney medulla,"MCTs [9]; in vivo, 25 mg/kg",1264 SUV min
same,AUC0–60 min liver,"MCTs [9]; in vivo, 25 mg/kg",286 SUV min
same,AUC0–60 min plasma,"MCTs [9]; in vivo, 25 mg/kg",40 SUV min
same,AUC0–60 min vertebrae,"MCTs [9]; in vivo, 25 mg/kg",100 SUV min
same,kidney uptake blocked by α-CCA-Na pre-treatment,MCTs [9]; piglets,about 60%
same,reduction of [18F]FACH AUC0–60min in kidney medulla,"MCTs [9]; piglets, α-CCA-Na 25 mg/kg pre-treatment",50%
same,specifically bound radiotracer displaced,MCTs [10],around 50%
same,displacement of [18F]FACH,MCTs [2],8%
same,BPND = k3/k4 (2-TCM),MCTs [11],12.96±5.40 1/1
